Drawing on ChEMBL document CHEMBL4130575, “Sucupiranins A-L, Furanocassane Diterpenoids from the Seeds of Bowdichia virgilioides” (J Nat Prod, 2017), this text covers IC50, CC50 and selectivity ratio for eleven compounds.

For data set [1], the system named is HeLa. Briefly: Cytotoxicity against human HeLa cells after 48 hrs by CCK8 assay. Type of data set: functional, cell-based.
Data set [2] concerns HL-60. Briefly: Cytotoxicity against human HL60 cells after 48 hrs by CCK8 assay. Type of data set: functional, cell-based. The following applies: HL-60, 48 h.
In data set [3] the test system is Plasmodium falciparum. Briefly: Antimalarial activity against Plasmodium falciparum K1 infected in human erythrocytes after 72 hrs by lactate dehydrogenase assay. Type of data set: functional, organism-based. The following applies: K1, 72 h.
Data set [4] in a line: Cytotoxicity against human MRC5 cells assessed as decrease in cell viability after 7 days by MTT assay. The data set is classed as cell-based.
The nature of data set [5]: Selectivity index, ratio of CC50 for human MRC5 cells to IC50 for Plasmodium falciparum K1. The data set is classed as toxicity. The following applies: read-out: Ratio CC50/IC50.
Data set [6] deals with RAW264.7. Description: Antiinflammatory activity in mouse RAW264.7 cells assessed as inhibition of LPS-induced nitric oxide production preincubated for 3 hrs followed by LPS challenge measured after 20 hrs by Griess assay. Type of data set: functional, cell-based.

Consider `CC(=O)OC[C@@H]1c2ccoc2C[C@H]2[C@H]1C[C@H](OC(C)=O)[C@H]1C(C)(C)CCC[C@]21C`, for which the half-inhibitory concentration (IC50) came out at 32.2 µM in data set [1], 32.6 µM in data set [2] and 23.5 µM in data set [3]. Moreover, the CC50 at 168 h in data set [4] is 44.1 µM. In data set [5], the selectivity ratio was determined as 1.9.
As to `CC(=O)O[C@H]1[C@H](O)[C@@H]2[C@H](Cc3occc3[C@@]2(C)O)[C@@]2(C)CCCC(C)(C)[C@H]12`, the IC50 in data set [6] was 30.6 µM; in data set [3] it was 32.2 µM. Besides, the CC50 at 168 h in data set [4] turned out to be 139 µM. The selectivity ratio in data set [5] came out at 4.3.
In turn, `COC(=O)[C@@H]1c2ccoc2C[C@H]2[C@H]1[C@@H](OC(C)=O)[C@H](O)[C@@H]1[C@]2(C)CCC[C@@]1(C)C(=O)OC` displayed an IC50 in data set [3] of more than 27.9 µM.
The compound `COC(=O)[C@@H]1c2ccoc2C[C@H]2[C@H]1[C@@H](O)[C@H](O)[C@H]1[C@](C)(CO)CCC[C@]21C` registered an IC50 in data set [2] of 9.8 µM.
`COC(=O)[C@@H]1c2ccoc2C[C@H]2[C@H]1[C@@H](O)[C@H](OC(C)=O)[C@H]1C(C)(C)CCC[C@]21C` displayed a concentration for half-maximal inhibition (IC50) in data set [3] of more than 30.9 µM.
Still for that read-out and setting: the figure for `C[C@@H]1CC[C@H]2[C@@H](C)C(=O)O[C@@H]3O[C@@]4(C)CC[C@@H]1[C@]32OO4` [ARTEMISININ] is 0.025 µM.
`COC(=O)[C@@H]1c2ccoc2C[C@H]2[C@H]1[C@@H](O)[C@H](O)[C@H]1C(C)(C)CCC[C@]21C`: the IC50 in data set [3] came to 22.9 µM. Also, the CC50 at 168 h in data set [4] was more than 276 µM. The selectivity ratio in data set [5] is more than 12.
`CC(=O)OC[C@@]1(C)CCC[C@]2(C)[C@H]3Cc4occc4[C@@](C)(O)[C@@H]3[C@@H](O)[C@H](OC(C)=O)[C@@H]12`: the concentration for half-maximal inhibition (IC50) in data set [3] was more than 28.8 µM.
The same measure, in the same setting: the figure for `COC(=O)[C@@H]1c2ccoc2C[C@H]2[C@H]1[C@@H](OC(C)=O)[C@H](O)[C@H]1[C@](C)(COC(C)=O)CCC[C@]21C` is more than 27 µM; for `COC(=O)[C@@H]1c2ccoc2C[C@H]2[C@H]1[C@@H](OC(C)=O)[C@@H]1OC(=O)[C@]3(C)CCC[C@@]2(C)[C@@H]13` it is more than 30 µM.
On the same count and under the same terms, the figure for `COC(=O)[C@@H]1c2ccoc2C[C@H]2[C@H]1[C@@H](OC(C)=O)[C@H](O)[C@H]1C(C)(C)CCC[C@]21C` is more than 30.9 µM.
